According to patent US20090131430A1, “PYRIDO'2,3-DIPYRIMIDINES AS ANTI-INFLAMMATORY AGENTS” (priority 2004, published 2009):

Tested on: not given
Assay: not given
Conditions: not given

Row | Compound | melting point [°C]
1 | Cn1c(=O)c(-c2ccccc2Cl)cc2cnc(NC3CC4CCCC(C3)N4Cc3ccccc3)nc21 (stereo not shown) | 76.9 to 82
2 | Cn1c(=O)c(-c2ccccc2Cl)cc2cnc(NC3CC4CCC(C3)N4Cc3ccccc3)nc21 (stereo not shown) | 147.4 to 153.8

Results, then the molecule that gave them:

Row | melting point [°C] | Compound
3 | 107.4 to 110.4 | O=c1c(-c2ccccc2Cl)cc2cnc(NC3C4COCC3CN(Cc3ccccc3)C4)nc2n1-c1ccc(F)cc1 (stereo not shown) [Compound No. 52, 2-(7-Benzyl-3-oxa-7-aza-bicyclo[3.3.1]non-9-ylamino)-6-(2-chlorophenyl)-8-(4-fluorophenyl)-8H-pyrido[2,3-d]pyrimidin-7-one]
4 | 118.7 to 125.2 | CCOC(=O)N1CC2C(C1)C2Nc1ncc2cc(-c3ccccc3Cl)c(=O)n(C)c2n1 (stereo not shown) [Compound No. 68, 6-[6-(2-Chlorophenyl)-8-methyl-7-oxo-7,8-dihydro-pyrido[2,-d]pyrimidin-2-ylamino]-3-aza-bicyclo[3.1.0]hexane-3-carboxylic acid ethyl ester]

Tested on: TNF-α release from peripheral blood mononuclear cells
Assay: Cell based assay for TNF-α release, LPS stimulation of human PBMNC's (ELISA)
Conditions: PBMC, LPS 20 ng/ml, overnight, span over the group, units given in the value
Experimental: Human whole blood was collected in vacutainer tubes containing EDTA as an anti coagulant. A blood sample (7 ml) was carefully layered over 5 ml PMN Cell Isolation Medium (Robbins Scientific) in a 15 ml round bottom centrifuge tubes. The sample was centrifuged at 450-500×g for 30-35 minutes in a swing-out rotor at room temperature. After centrifugation the top band of cells were removed and washed 3 times with PBS w/o calcium or magnesium. The cells were centrifuged at 400×g for 10 minutes at room temperature. The cells were resuspended in Macrophage Serum Free Medium (Gibco BRL) at concentration of 2 million cells/ml.
PBM cells (0.1 ml; 2 million/ml) were co-incubated with 0.1 ml of compound (10-0.41 μM, final concentration) for 1 hour in flat bottom 96 well microtiter plate. Compounds were dissolved in DMSO initially and diluted in TCM for a final concentration of 0.1% DMSO. LPS (Cal biochem, 20 ng/ml, final concentration) was then added at volume of 0.010 ml. Cultures were incubated overnight at 37° C.). Supernatant were then removed and tested by ELISA for TNF-α release. Viability was analyzed using MTT. After 0.1 ml supernatant was collected, 0.1 ml of 0.25 mg/ml of MTT was added to remaining 0.1 ml of cells. The cells were incubated at 37° C. for 2-4 hours, then the O.D was measured at 490-650 nm n.
The TNF-α levels released in the culture medium were quantitated by ELISA. Inhibitory potency was expressed as IC50.

Row | Compound | IC50 [µM]
5 | Cn1c(=O)c(-c2ccccc2Cl)cc2cnc(NC3C4CN(C(=O)Nc5ccc(F)cc5)CC43)nc21 (stereo not shown) [Compound No. 2, 6-[6-(2-Chlorophenyl)-8-methyl-7-oxo-7,8-dihydro-pyrido[2,3-d]pyrimidin-2-ylamino]-3-aza-bicyclo[3.1.0]hexane-3-carboxylic acid-(4-fluorophenyl)-amide] | 0.012 to 2.3
6 | Cn1c(=O)c(-c2ccccc2Cl)cc2cnc(NC3C4CN(S(C)(=O)=O)CC43)nc21 (stereo not shown) [Compound No. 4, 6-(2-Chlorophenyl)-2-(3-methanesulphonyl-3-aza-bicyclo[3.1.0]hex-6-ylamino)-8-methyl-8H-pyrido[2,3-d]pyrimidin-7-one] | 0.012 to 2.3
7 | Cn1c(=O)c(-c2ccccc2Cl)cc2cnc(NC3C4CN(C(=O)OCc5ccccc5)CC43)nc21 (stereo not shown) [Compound No. 6, 6-[6-(2-Chlorophenyl)-8-methyl-7-oxo-7,8-dihydro-pyrido[2,3-d]pyrimidin-2-ylamino]-3-aza-bicyclo[3.1.0]hexane-3-carboxylic acid benzyl ester] | 0.012 to 2.3
8 | O=C(OCc1ccccc1)N1CC2C(C1)C2Nc1ncc2cc(-c3ccccc3Cl)c(=O)n(-c3ccc(F)cc3)c2n1 (stereo not shown) [Compound No. 12, 6-[6-(2-Chlorophenyl)-8-(4-fluorophenyl)-7-oxo-7,8-dihydro-pyrido[2,3-d]pyrimidin-2-ylamino]-3-aza-bicyclo[3.1.0]hexane-3-carboxylic acid benzyl ester] | 0.012 to 2.3
9 | O=c1c(-c2ccccc2Cl)cc2cnc(NCC3C4CN(Cc5ccccc5)CC34)nc2n1-c1ccc(F)cc1 (stereo not shown) [Compound No. 16, 2-[(3-Benzyl-3-aza-bicyclo[3.1.0]hex-6-ylmethyl)-amino]-6-(2-chlorophenyl)-8-(4-fluorophenyl)-8H-pyrido[2,3-d]pyrimidin-7-one] | 0.012 to 2.3
10 | O=c1c(-c2ccccc2Cl)cc2cnc(NC3C4CN(Cc5ccccc5)CC43)nc2n1C1CC1 (stereo not shown) [Compound No. 17, 2-(3-Benzyl-3-aza-bicyclo[3.1.0]hex-6-ylamino)-6-(2-chlorophenyl)-8-cyclopropyl-8H-pyrido[2,3-d]pyrimidin-7-one] | 0.012 to 2.3

More lines, now with the values ahead:

Row | IC50 [µM] | Compound
11 | 0.012 to 2.3 | O=C(OCc1ccccc1)N1CC2C(C1)C2Nc1ncc2cc(-c3ccccc3Cl)c(=O)n(C3CC3)c2n1 (stereo not shown) [Compound No. 18, 6-[6-(2-Chlorophenyl)-8-cyclopropyl-7-oxo-7,8-dihydro-pyrido[2,3-d]pyrimidin-2-ylamino]-3-aza-bicyclo[3.1.0]hexane-3-carboxylic acid benzyl ester]
12 | 0.012 to 2.3 | O=c1c(-c2ccccc2Cl)cc2cnc(NC3C4CNCC43)nc2n1C1CC1 (stereo not shown) [Compound No. 19, 2-(3-Aza-bicyclo[3.1.0]hex-6-ylamino)-6-(2-chlorophenyl)-8-cyclopropyl-8H-pyrido[2,3-d]pyrimidin-7-one]
13 | 0.012 to 2.3 | CN1CC2C(C1)C2Nc1ncc2cc(-c3ccccc3Cl)c(=O)n(C3CC3)c2n1 (stereo not shown) [Compound No. 20, 6-(2-Chlorophenyl)-8-cyclopropyl-2-(3-methyl-3-aza-bicyclo[3.1.0]hex-6-ylamino)-8H-pyrido[2,3-d]pyrimidin-7-one]
14 | 0.012 to 2.3 | CC(=O)N1CC2C(C1)C2Nc1ncc2cc(-c3ccccc3Cl)c(=O)n(C3CC3)c2n1 (stereo not shown) [Compound No. 23, 2-(3-Acetyl-3-aza-bicyclo[3.1.0]hex-6-ylamino)-6-(2-chlorophenyl)-8-cyclopropyl-8H-pyrido[2,3-d]pyrimidin-7-one]
15 | 0.012 to 2.3 | CC(C)(C)CC(C)(C)NC(=O)N1CC2C(C1)C2Nc1ncc2cc(-c3ccccc3Cl)c(=O)n(C3CC3)c2n1 (stereo not shown) [Compound No. 24]
16 | 0.012 to 2.3 | O=C(Nc1ccc(F)cc1)N1CC2C(C1)C2Nc1ncc2cc(-c3ccccc3Cl)c(=O)n(C3CC3)c2n1 (stereo not shown) [Compound No. 26, 6-[6-(2-Chlorophenyl)-8-cyclopropyl-7-oxo-7,8-dihydro-pyrido[2,3-d]pyrimidin-2-ylamino]-3-aza-bicyclo[3.1.0]hexane-3-carboxylic acid-(4-fluorophenyl)-amide]
17 | 0.012 to 2.3 | O=c1[nH]c2nc(NC3C4CN(Cc5ccccc5)CC43)ncc2cc1-c1ccccc1Cl (stereo not shown) [Compound No. 27, 2-(3-Benzyl-3-aza-bicyclo[3.1.0]hex-6-ylamino)-6-(2-chlorophenyl)-8H-pyrido[2,3-d]pyrimidin-7-one]
18 | 0.012 to 2.3 | O=c1c(-c2ccccc2Cl)cc2cnc(NC3C4COCC3CN(Cc3ccccc3)C4)nc2n1C1CC1 (stereo not shown) [Compound No. 33, 2-(7-Benzyl-3-oxa-7-aza-bicyclo[3.3.1]non-9-ylamino)-6-(2-chlorophenyl)-8-cyclopropyl-8H-pyrido[2,3-d]pyrimidin-7-one]
19 | 0.012 to 2.3 | N#CCn1c(=O)c(-c2ccccc2Cl)cc2cnc(NC3C4CN(Cc5ccccc5)CC43)nc21 (stereo not shown) [Compound No. 56, [2-(3-Benzyl-3-aza-bicycyclo[3.1.0]hex-6-ylamino)-6-(2-chlorophenyl)-7-oxo-7H-pyrido[2,3-d]pyrimidin-8-yl]-acetonitrile]
20 | 0.012 to 2.3 | N#CCn1c(=O)c(-c2ccccc2Cl)cc2cnc(NC3C4CN(C(=O)Nc5ccc(F)cc5)CC43)nc21 (stereo not shown) [Compound No. 57, 6-[6-(2-Chlorophenyl)-8-cyanomethyl-7-oxo-7,8-dihydro-pyrido[2,3-d]pyrimidin-2-ylamino]-3-aza-bicyclo[3.1.0]hexane-3-carboxylic acid (4-fluorophenyl)-amide]
21 | 0.012 to 2.3 | O=c1[nH]c2nc(NC3C4CNCC43)ncc2cc1-c1ccccc1Cl (stereo not shown) [Compound No. 58, 2-(3-Aza-bicyclo[3.1.0]hex-6-ylamino)-6-(2-chlorophenyl)-8H-pyrido[2,3-d]pyrimidin-7-one]
22 | 0.012 to 2.3 | NC(=O)N1CC2C(C1)C2Nc1ncc2cc(-c3ccccc3Cl)c(=O)n(C3CC3)c2n1 (stereo not shown) [Compound No. 63, 6-[6-(2-Chlorophenyl)-8-cyclopropyl-7-oxo-7,8-dihydro-pyrido[2,3-d]pyrimidin-2-ylamino]-3-aza-bicyclo[3.1.0]hexane-3-carboxylic acid amide]

Tested on: not listed separately
Assay: Precipitate formation in the DMSO solvent used
Type: physicochemical
Conditions: DMSO solvent used in testing

Row | Compound | formed a precipitate in the DMSO solvent used
23 | Cc1ccc(S(=O)(=O)N2CC3C(C2)C3Nc2ncc3cc(-c4ccccc4Cl)c(=O)n(C4CC4)c3n2)cc1 (stereo not shown) [Compound No. 21, 6-(2-Chlorophenyl)-8-cyclopropyl-2-[3-(toluene-4-sulphonyl)-3-aza-bicyclo[3.1.0]hex-6-ylamino]-8H-pyrido[2,3-d]pyrimidin-7-one] | formed a precipitate in the DMSO solvent used
24 | CC(C)(C)CC(C)(C)NC(=O)N1CC2C(C1)C2Nc1ncc2cc(-c3ccccc3Cl)c(=O)n(C3CC3)c2n1 (stereo not shown) [Compound No. 24] | formed a precipitate in the DMSO solvent used
25 | O=c1c(-c2ccccc2Cl)cc2cnc(NC3C4CN(S(=O)(=O)c5ccc(C(F)(F)F)cc5)CC43)nc2n1C1CC1 (stereo not shown) [Compound No. 37, 6-(2-Chlorophenyl)-8-cyclopropyl-2-[3-(4-trifluoromethylbenzenesulfonyl)-3-aza-bicyclo[3.1.0]hex-6-ylamino]-8H-pyrido[2,3-d]pyrimidin-7-one] | formed a precipitate in the DMSO solvent used
26 | Cn1c(=O)c(-c2ccccc2Cl)cc2cnc(NC3C4CN(S(=O)(=O)c5ccccc5)CC43)nc21 (stereo not shown) [Compound No. 41, 2-(3-Benzenesulphonyl-3-aza-bicyclo[3.1.0]hex-6-ylamino)-6-(2-chlorophenyl)-8-methyl-8H-pyrido[2,3-d]pyrimidin-7-one] | formed a precipitate in the DMSO solvent used
27 | Cc1ccc(S(=O)(=O)N2CC3C(C2)C3Nc2ncc3cc(-c4ccccc4Cl)c(=O)n(C)c3n2)cc1 (stereo not shown) [Compound No. 43, 6-(2-Chlorophenyl)-8-methyl-2-[3-(toluene-4-sulfonyl)-3-aza-bicyclo[3.1.0]hex-6-ylamino]-8H-pyrido[2,3-d]pyrimidin-7-one] | formed a precipitate in the DMSO solvent used
28 | O=c1[nH]c2nc(NC3C4COCC3CN(Cc3ccccc3)C4)ncc2cc1-c1ccccc1Cl (stereo not shown) [Compound No. 61, 2-(7-Benzyl-3-oxa-7-aza-bicyclo[3.3.1]non-9-ylamino)-6-(2-chlorophenyl)-8H-pyrido[2,3-d]pyrimidin-7-one] | formed a precipitate in the DMSO solvent used
